Laboratory results published in ChEMBL document CHEMBL5518235, “Identification of Novel Series of Potent and Selective Relaxin Family Peptide Receptor 1 (RXFP1) Agonists” (J Med Chem, 2024).
≈ marks a conversion by molar mass, not a printed value. Values belong to the compound of their own block, whether it stands above or below them. Calls of active or inactive are those of the source. The rule behind the calls is not given here.

Experiments:
[1] = Metabolic stability in Han Wistar rat hepatocytes assessed as unbound intrinsic clearance measured per 10^6 cells at 1 uM after 120 mins by LC-MS/MS analysis; type: ADME, cell-based, Hepatocyte; conditions: 2 h
Relaxin receptor 1 [2] = target: T1, Relaxin receptor 1 (Rattus norvegicus, UniProt Q6R6I6); assay: Agonist activity at rat RXFP1 expressed in T-Rex-CHO-K1 cells assessed as stimulation of cAMP production incubated for 60 mins by HTRF assay; type: functional, cell-based
T1 sequence (Q6R6I6 whole entry): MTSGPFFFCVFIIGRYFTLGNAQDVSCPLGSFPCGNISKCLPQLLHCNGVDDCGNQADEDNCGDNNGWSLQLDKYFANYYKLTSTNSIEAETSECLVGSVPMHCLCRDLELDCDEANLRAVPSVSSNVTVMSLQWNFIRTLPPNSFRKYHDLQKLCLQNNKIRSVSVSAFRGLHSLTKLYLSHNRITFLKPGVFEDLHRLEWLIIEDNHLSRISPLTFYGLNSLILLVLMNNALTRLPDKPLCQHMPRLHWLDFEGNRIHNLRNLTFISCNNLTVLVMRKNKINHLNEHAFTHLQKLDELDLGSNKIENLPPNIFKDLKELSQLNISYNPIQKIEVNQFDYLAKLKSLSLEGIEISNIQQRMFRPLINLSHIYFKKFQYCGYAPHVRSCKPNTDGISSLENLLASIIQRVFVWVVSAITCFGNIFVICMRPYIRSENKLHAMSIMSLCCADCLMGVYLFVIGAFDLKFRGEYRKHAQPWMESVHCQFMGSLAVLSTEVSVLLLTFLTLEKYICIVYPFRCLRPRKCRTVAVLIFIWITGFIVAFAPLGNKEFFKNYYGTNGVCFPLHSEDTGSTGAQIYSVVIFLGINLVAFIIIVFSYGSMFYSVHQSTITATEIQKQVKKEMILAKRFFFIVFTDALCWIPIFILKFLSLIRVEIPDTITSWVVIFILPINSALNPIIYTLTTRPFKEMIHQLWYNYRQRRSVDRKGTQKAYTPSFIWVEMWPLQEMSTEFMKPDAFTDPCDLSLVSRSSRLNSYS

[3] = Metabolic stability in cryopreserved human hepatocytes assessed as intrinsic clearance measured per 10^6 cells at 1 uM after 120 mins by LC-MS/MS analysis; type: ADME, cell-based, Hepatocyte; conditions: for hepatocyte CLint at 1 µM: cryopreserved hepatocytes, read-out: CLH
[4] = Half-life in Han Wistar rat at 0.76 micromol/kg, iv by LC-MS/MS analysis; type: ADME, organism-based; conditions: in vivo, dose 0.76 µmol/kg
[5] = Clearance in Han Wistar rat at 0.76 micromol/kg, iv by LC-MS/MS analysis; type: ADME, organism-based; conditions: in vivo, dose 0.76 µmol/kg
[6] = Protein binding in rat plasma assessed as free fraction at 5 uM incubated for 18 hrs by equilibrium dialysis based LC-MS/MS analysis; type: ADME, cell-free
[7] = Metabolic stability in cryopreserved human hepatocytes assessed as unbound intrinsic clearance measured per 10^6 cells at 1 uM measured after 120 mins by LC-MS/MS analysis; type: ADME, cell-based, Hepatocyte; conditions: 2 h
[8] = Oral bioavailability in Han Wistar rat at 1.52 micromol/kg by LC-MS/MS analysis; type: ADME, organism-based; conditions: in vivo, 1.52 µmol/kg
[9] = Lipophilicity, logD of the compound in 1-octanol and phosphate buffer at pH 7.4 incubated for 3 hrs by shake flask method based LC/MS/MS analysis; type: physicochemical; conditions: 1-octanol/phosphate buffer, pH 7.4
Relaxin receptor 1 [10] = target: T2, Relaxin receptor 1 (Homo sapiens, UniProt Q9HBX9); assay: Agonist activity at human RXFP1 expressed in T-Rex-CHO-K1 cells assessed as stimulation of cAMP production incubated for 45 mins by HTRF assay; type: functional, cell-based
T2 sequence (Q9HBX9 whole entry): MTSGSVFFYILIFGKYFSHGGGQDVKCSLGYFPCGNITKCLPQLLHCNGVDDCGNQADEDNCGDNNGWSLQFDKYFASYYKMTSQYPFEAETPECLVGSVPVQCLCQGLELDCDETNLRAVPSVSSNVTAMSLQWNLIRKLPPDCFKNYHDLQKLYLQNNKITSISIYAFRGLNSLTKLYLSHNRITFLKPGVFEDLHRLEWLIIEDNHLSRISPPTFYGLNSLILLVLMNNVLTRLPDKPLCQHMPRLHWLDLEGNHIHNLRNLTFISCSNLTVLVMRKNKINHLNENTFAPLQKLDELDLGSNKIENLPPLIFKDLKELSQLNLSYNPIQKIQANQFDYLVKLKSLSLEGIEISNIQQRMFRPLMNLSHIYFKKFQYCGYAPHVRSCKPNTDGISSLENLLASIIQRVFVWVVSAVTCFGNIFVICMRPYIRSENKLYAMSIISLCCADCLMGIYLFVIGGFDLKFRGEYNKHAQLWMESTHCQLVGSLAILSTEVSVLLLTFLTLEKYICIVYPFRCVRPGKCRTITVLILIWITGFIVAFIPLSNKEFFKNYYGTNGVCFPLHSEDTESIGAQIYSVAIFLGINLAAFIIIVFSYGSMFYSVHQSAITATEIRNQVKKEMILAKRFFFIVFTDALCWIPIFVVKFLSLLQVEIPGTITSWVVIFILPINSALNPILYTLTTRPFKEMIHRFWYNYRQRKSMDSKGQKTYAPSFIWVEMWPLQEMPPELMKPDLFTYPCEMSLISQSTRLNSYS

[11] = Volume of distribution at steady state in Han Wistar rat at 0.76 micromol/kg, iv by LC-MS/MS analysis; type: ADME, organism-based; conditions: in vivo, dose 0.76 µmol/kg, read-out: Vdss
[12] = Metabolic stability in Han Wistar rat hepatocytes assessed as intrinsic clearance measured per 10^6 cells at 1 uM after 120 mins by LC-MS/MS analysis; type: ADME, cell-based, Hepatocyte; conditions: read-out: CLH
[13] = target: T3, Relaxin receptor 1 (Rattus norvegicus) (UniProt Q6R6I6); assay: Agonist activity at rat RXFP1 expressed in T-Rex-CHO-K1 cells assessed as stimulation of cAMP production by measuring maximal efficacy incubated for 60 mins by HTRF assay relative to control; type: functional, cell-based; conditions: filed as agonist
T3 sequence (whole entry): T1 sequence (Q6R6I6 whole entry)

[14] = target: T4, Relaxin receptor 1 (Homo sapiens) (UniProt Q9HBX9); assay: Agonist activity at human RXFP1 expressed in T-Rex-CHO-K1 cells assessed as stimulation of cAMP production by measuring maximal efficacy at 50 uM incubated for 45 mins by HTRF assay relative to control; type: functional, cell-based; conditions: filed as agonist
T4 sequence (whole entry): T2 sequence (Q9HBX9 whole entry)

[15] = Metabolic stability in rat hepatocytes assessed as unbound fraction at 1 uM incubated for 4 hrs by equilibrium dialysis based LC-MS/MS analysis; type: ADME, cell-based, Hepatocyte
[16] = Oral bioavailability in Han Wistar rat at 2.0 micromol/kg by LC-MS/MS analysis; type: ADME, organism-based; conditions: in vivo, 2 µmol/kg
[17] = Metabolic stability in human liver microsomes assessed as unbound fraction at 1 uM incubated for 4 hrs by equilibrium dialysis based LC-MS/MS analysis; type: ADME, Microsome
[18] = Volume of distribution at steady state in Han Wistar rat at 0.99 micromol/kg, iv by LC-MS/MS analysis; type: ADME, organism-based; conditions: in vivo, dose 0.99 µmol/kg, read-out: Vdss
[19] = target: T3, Relaxin receptor 1 (Rattus norvegicus); assay: Agonist activity at rat RXFP1 expressed in T-Rex-CHO-K1 cells assessed as stimulation of cAMP production at 40 uM incubated for 45 mins by HTRF assay; type: functional, cell-based
[20] = Metabolic stability in human liver microsomes assessed as intrinsic clearance at 1 uM incubated for 30 mins in presence of NADPH by LC-MS/MS analysis; type: ADME, Microsome; conditions: liver microsomes, read-out: CLH
[21] = Metabolic stability in Han Wistar rat hepatocytes assessed as unbound intrinsic clearance measured […] at 1 uM after 120 mins by LC-MS/MS analysis; type: ADME, cell-based, Hepatocyte; conditions: 2 h
[22] = Metabolic stability in human liver microsomes assessed as unbound intrinsic clearance at 1 uM incubated for 30 mins in presence of NADPH by LC-MS/MS analysis; type: ADME, Microsome; conditions: 0.5 h
[23] = Clearance in Han Wistar rat at 0.99 micromol/kg, iv by LC-MS/MS analysis; type: ADME, organism-based; conditions: in vivo, dose 0.99 µmol/kg
[24] = Half-life in Han Wistar rat at 0.99 micromol/kg, iv by LC-MS/MS analysis; type: ADME, organism-based; conditions: in vivo, dose 0.99 µmol/kg
[25] = Kinetic solubility of compound at pH 7.4 incubated for 24 hrs by shake-flask method based LC-MS/MS analysis; type: physicochemical; conditions: buffer, read-out: Kinetic_solubility
Bile salt export pump = Bile salt export pump (Homo sapiens, UniProt O95342); assay: Inhibition of BSEP (unknown origin) by membrane vesicle assay; type: toxicity
[26] = Cytotoxicity against human THP-1 cells assessed as reduction of cell viability incubated for 48 hrs by resazurin reduction assay; type: toxicity, cell-based
[27] = Cytotoxicity against human HepG2 cells cultured under galactose condition assessed as reduction in cell viability; type: toxicity, cell-based
[28] = Half-life in Han Wistar rat at 0.73 micromol/kg, iv by LC-MS/MS analysis; type: ADME, organism-based; conditions: in vivo, dose 0.73 µmol/kg
[29] = target: T3, Relaxin receptor 1 (Rattus norvegicus); assay: In vivo agonist activity at RXFP1 in Sprague-Dawley rat assessed as hemodynamic effect by measuring increase in heart rate at 3.5 mg/kg, iv administered via bolus followed by 6.0 mg/kg, iv administered via infusion for 3 hrs and measured 1 hrs post washout; type: functional, organism-based
[30] = Cytotoxicity against human HepG2 cells cultured as C3a spheroids assessed as reduction in cell viability; type: toxicity, cell-based
[31] = target: T3, Relaxin receptor 1 (Rattus norvegicus); assay: In vivo agonist activity at RXFP1 in Sprague-Dawley rat assessed as hemodynamic effect by measuring increase in blood pressure at 3.5 mg/kg, iv administered via bolus followed by 6.0 mg/kg, iv administered via infusion for 3 hrs and measured 1 hrs post washout; type: functional, organism-based
[32] = Cytotoxicity against human HepG2 cells cultured under glucose condition assessed as reduction in cell viability; type: toxicity, cell-based
[33] = Clearance in Han Wistar rat at 0.73 micromol/kg, iv by LC-MS/MS analysis; type: ADME, organism-based; conditions: in vivo, dose 0.73 µmol/kg
[34] = Volume of distribution at steady state in Han Wistar rat at 0.73 micromol/kg, iv by LC-MS/MS analysis; type: ADME, organism-based; conditions: in vivo, dose 0.73 µmol/kg, read-out: Vdss
[35] = target: Voltage-gated inwardly rectifying potassium channel KCNH2 (Homo sapiens, UniProt Q12809); assay: Inhibition of human ERG by automated electrophysiology recording; type: toxicity
[36] = Unbound Cmax in Sprague-Dawley rat at 3.5 mg/kg, iv administered via bolus followed by 6.0 mg/kg, iv administered via infusion for 3 hrs and measured 1 hrs post washout by LC-MS/MS analysis; type: ADME, organism-based; conditions: in vivo

Chain of Bile salt export pump (O95342 whole entry): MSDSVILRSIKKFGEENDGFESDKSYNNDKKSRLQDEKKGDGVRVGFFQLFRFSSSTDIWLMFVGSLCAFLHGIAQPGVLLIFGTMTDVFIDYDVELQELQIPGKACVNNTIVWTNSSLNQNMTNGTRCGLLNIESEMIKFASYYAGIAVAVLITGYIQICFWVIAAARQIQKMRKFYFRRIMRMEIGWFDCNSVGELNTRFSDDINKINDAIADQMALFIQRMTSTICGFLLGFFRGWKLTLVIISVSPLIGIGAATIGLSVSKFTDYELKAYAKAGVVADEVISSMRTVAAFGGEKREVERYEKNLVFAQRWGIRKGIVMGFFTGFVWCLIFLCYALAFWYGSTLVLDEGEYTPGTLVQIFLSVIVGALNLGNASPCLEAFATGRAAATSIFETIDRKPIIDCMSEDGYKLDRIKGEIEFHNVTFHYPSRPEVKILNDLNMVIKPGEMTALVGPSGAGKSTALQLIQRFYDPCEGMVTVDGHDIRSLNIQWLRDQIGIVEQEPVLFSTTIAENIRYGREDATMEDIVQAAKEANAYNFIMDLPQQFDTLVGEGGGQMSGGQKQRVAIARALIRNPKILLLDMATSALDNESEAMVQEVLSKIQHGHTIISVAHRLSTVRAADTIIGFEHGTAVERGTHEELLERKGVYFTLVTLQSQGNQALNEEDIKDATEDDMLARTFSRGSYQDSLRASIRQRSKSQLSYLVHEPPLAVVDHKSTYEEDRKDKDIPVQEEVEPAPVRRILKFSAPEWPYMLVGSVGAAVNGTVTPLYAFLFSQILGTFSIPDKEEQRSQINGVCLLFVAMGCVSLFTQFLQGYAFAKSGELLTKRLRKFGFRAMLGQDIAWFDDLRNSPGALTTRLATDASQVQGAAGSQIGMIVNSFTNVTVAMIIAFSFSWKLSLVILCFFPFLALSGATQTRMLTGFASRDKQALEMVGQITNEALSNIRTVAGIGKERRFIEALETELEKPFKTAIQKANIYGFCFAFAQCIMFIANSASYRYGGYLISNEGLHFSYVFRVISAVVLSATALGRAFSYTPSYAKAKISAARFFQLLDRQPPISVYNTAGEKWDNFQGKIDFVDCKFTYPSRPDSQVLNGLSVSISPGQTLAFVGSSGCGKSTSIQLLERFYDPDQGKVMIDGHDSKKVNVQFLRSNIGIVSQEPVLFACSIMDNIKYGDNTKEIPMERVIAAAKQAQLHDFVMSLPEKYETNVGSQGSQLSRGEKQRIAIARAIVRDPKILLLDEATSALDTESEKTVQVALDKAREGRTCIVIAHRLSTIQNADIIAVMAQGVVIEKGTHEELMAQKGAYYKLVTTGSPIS
Chain of Voltage-gated inwardly rectifying potassium channel KCNH2 (Q12809 whole entry, the tested form may be a part): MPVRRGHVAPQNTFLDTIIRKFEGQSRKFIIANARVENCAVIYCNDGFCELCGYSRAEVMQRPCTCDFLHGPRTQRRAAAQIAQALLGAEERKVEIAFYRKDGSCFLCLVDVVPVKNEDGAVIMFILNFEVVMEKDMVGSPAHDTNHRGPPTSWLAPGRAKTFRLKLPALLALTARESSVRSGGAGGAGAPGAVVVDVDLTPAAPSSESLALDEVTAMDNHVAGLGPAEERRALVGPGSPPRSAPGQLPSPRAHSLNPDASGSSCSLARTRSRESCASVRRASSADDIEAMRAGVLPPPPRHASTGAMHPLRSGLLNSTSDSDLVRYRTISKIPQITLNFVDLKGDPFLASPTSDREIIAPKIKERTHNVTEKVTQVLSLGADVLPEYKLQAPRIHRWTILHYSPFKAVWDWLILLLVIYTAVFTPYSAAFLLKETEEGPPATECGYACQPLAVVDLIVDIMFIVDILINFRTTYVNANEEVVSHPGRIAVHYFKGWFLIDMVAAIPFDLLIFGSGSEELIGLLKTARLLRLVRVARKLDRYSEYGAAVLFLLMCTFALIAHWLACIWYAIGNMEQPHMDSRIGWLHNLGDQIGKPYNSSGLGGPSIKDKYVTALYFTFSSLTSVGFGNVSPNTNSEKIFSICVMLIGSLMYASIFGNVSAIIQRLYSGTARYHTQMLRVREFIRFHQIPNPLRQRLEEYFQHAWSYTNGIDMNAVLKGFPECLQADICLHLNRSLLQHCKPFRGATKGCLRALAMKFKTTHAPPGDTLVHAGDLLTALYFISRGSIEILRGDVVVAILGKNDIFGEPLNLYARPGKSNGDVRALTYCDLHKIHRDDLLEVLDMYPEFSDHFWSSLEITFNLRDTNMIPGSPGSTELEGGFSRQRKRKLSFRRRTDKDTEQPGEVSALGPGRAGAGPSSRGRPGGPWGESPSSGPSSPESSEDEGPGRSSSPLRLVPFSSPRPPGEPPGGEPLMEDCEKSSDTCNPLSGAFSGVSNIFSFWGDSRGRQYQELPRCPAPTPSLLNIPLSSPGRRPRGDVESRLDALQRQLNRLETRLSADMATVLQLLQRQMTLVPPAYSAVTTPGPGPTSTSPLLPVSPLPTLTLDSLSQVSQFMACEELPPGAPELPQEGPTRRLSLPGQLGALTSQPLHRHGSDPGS

CL free [1]: 397 µL/min
EC50 (Relaxin receptor 1 [2]): 10 µM
hepatocyte CLint at 1 µM [3]: 15 µL/min/1e6 cells
half-life [4]: 72 min
clearance [5]: 76 mL/min/kg
fraction unbound at 18 h, 5 µM [6]: 0.011
CL free [7]: 259 µL/min
bioavailability [8]: 2.6%
logD at 3 h [9]: 3.5
EC50 (Relaxin receptor 1 [10]): 39.8 nM
Vd [11]: 1.7 L/kg
hepatocyte CLint at 1 µM [12]: 23 µL/min/1e6 cells
Emax [13]: 43%
Emax [14]: 102%
SMILES: COc1cc(F)c(O[C@H]2CC[C@@H](C(=O)O)CC2)cc1C(=O)N[C@@H]1[C@H]2CC[C@H](C2)[C@@H]1C(=O)Nc1cccc(S(=O)(=O)C(F)(F)F)c1

fraction unbound at 4 h, 1 µM [15]: 4e-05
bioavailability [16]: 40%
fraction unbound at 4 h, 1 µM [17]: 2e-05
Vd [18]: 7.7 L/kg
hepatocyte CLint at 1 µM [3]: 12.6 µL/min/1e6 cells
Activity [19]: inactive
fraction unbound at 18 h, 5 µM [6]: < 0.0002
microsomal CLint at 1 µM [20]: 55 µL/min/mg
CL free [7]: 3.07 10^3uL/min
CL free [21]: 5.4 µL/min
CL free [22]: 37 10^3uL/min/mg
logD at 3 h [9]: > 4
clearance [23]: 30 mL/min/kg
half-life [24]: 258 min
solubility kinetic at 24 h [25]: 1 µM (≈ 0.507 µg/mL)
hepatocyte CLint at 1 µM [12]: 22 µL/min/1e6 cells
SMILES: CC(C)Oc1ccccc1C(=O)Nc1ccccc1C(=O)Nc1cccc(S(=O)(=O)C(F)(F)F)c1

EC50 (Relaxin receptor 1 [2]): 7.94 µM
CLH ([3]; hepatocytes, 2 h, 1 µM): 49 µL/min/1e6 cells
half-life [28]: 138 min
fraction unbound at 18 h, 5 µM [6]: 0.0013
CL free [7]: 7 10^3uL/min
CL free [21]: 2 µL/min
clearance [33]: 14 mL/min/kg
logD at 3 h [9]: 4.5
Vd [34]: 1.5 L/kg
EC50 (Relaxin receptor 1 [10]): 3980 nM
fCmax [36]: 12 nM
hepatocyte CLint at 1 µM [12]: 14 µL/min/1e6 cells
Emax [13]: 128%
Emax [14]: 103%
SMILES: COc1cc(F)c(O[C@H]2CC[C@@](C)(C(=O)O)CC2)cc1C(=O)N[C@H]1[C@@H]2CC[C@@H](C2)[C@H]1C(=O)Nc1ccc(F)c(S(F)(F)(F)(F)F)c1
IC50 (Bile salt export pump): 97 µM
IC50 at 48 h [26]: 11 µM
IC50 [27]: 122 µM
Activity [29]: inactive
IC50 [30]: 34 µM
Activity [31]: inactive
IC50 [32]: 134 µM
IC50 [35]: 33 µM
